Experimental data reported in patent US20120077760A1, “NOVEL SALTS OF SITAGLIPTIN” (LEK Pharmaceuticals D.D., priority 2009, published 2012).

Assay: Solubility of sitagliptin salts in water at 25° C.
Procedure: The solubility in water was measured using Crysta™ from Avantium Technologies.

solubility in water (in words) | Solubility in water (25° C.) [mg/mL] | solubility (25 °C, thermodynamic from solid) [mg/mL] | Compound
very good | >500 |  | N[C@@H](CC(=O)N1CCn2c(nnc2C(F)(F)F)C1)Cc1cc(F)c(F)cc1F.O=C[C@H](O)[C@@H](O)[C@H](O)[C@H](O)C(=O)O [D-Glucuronate, Sitagliptin D-Glucuronate]
 |  | 100 to 120 | N[C@@H](CC(=O)N1CCn2c(nnc2C(F)(F)F)C1)Cc1cc(F)c(F)cc1F [Dihydrogen phosphate, sitagliptin dihydrogen phosphate, reference compound]
very good |  |  | Sitagliptin Oxalate
